# According to the supplement of paper PMC4862054:
# Tests used:
# Test in all cases: normalised response (% of control), CellTox Green; higher = less cell death (100 = DMSO, 0 = benzethonium chloride kill control)
# Conditions in all cases: incubation time: 72 h
# [1] = tested on: BT-474
# Procedure, shortened: (§1)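 Breast cancer cell lines in 20 µl suspension were added to 384-well plates containing compound at 5 concentrations, spaced in 10-fold steps across a 10,000-fold range chosen for each compound, and incubated for 72 h. CellTox Green fluorescence was read at 485/520 nm, followed by CellTiter-Glo luminescence after 10 min at room temperature. Signals on each plate were normalised so that 0.1 % DMSO equals 100 and a positive kill control equals 0. Every value in the table is the normalised signal at one concentration of the series.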
# [2] = tested on: BT-549
# Procedure, shortened: as §1
# [3] = tested on: CAL-120
# Procedure, shortened: as §1
# [4] = tested on: CAL-148
# Procedure, shortened: as §1
# [5] = tested on: CAL-51
# Procedure, shortened: as §1
# [6] = tested on: CAL-85-1
# Procedure, shortened: as §1
# [7] = tested on: DU-4475
# Procedure, shortened: as §1
# [8] = tested on: HCC1143
# Procedure, shortened: as §1
# [9] = tested on: HCC1599
# Procedure, shortened: as §1
# [10] = tested on: HCC1937
# Procedure, shortened: as §1
# [11] = tested on: HDQ-P1
# Procedure, shortened: as §1
# [12] = tested on: Hs578T
# Procedure, shortened: as §1
# [13] = tested on: MCF-10A
# Procedure, shortened: as §1
# [14] = tested on: MDA-MB-231
# Procedure, shortened: as §1
# [15] = tested on: MDA-MB-436
# Procedure, shortened: as §1
# [16] = tested on: MDA-MB-453
# Procedure, shortened: as §1
# [17] = tested on: MDA-MB-468
# Procedure, shortened: as §1
# [18] = tested on: MFM-223
# Procedure, shortened: as §1
Structure (SMILES),normalised response [1] [%],normalised response [2] [%],normalised response [3] [%],normalised response [4] [%],normalised response [5] [%],normalised response [6] [%],normalised response [7] [%],normalised response [8] [%],normalised response [9] [%],normalised response [10] [%],normalised response [11] [%],normalised response [12] [%],normalised response [13] [%],normalised response [14] [%],normalised response [15] [%],normalised response [16] [%],normalised response [17] [%],normalised response [18] [%]
COc1cccc2c1C(=O)c1c(O)c3c(c(O)c1C2=O)C[C@@](O)(C(=O)CO)C[C@@H]3O[C@H]1C[C@H](N)[C@H](O)[C@H](C)O1 [Doxorubicin] (1000 nM),105,185,92.7,66.4,22.4,77.5,111,143,149,148,120,159,129,160,126,130,363,68
C[C@]1(c2nc3c(C(N)=O)cccc3[nH]2)CCCN1 [Veliparib] (10000 nM),96.5,106,98.2,–,86.6,87.9,103,110,117,110,90.5,109,107,88.2,112,95.4,125,92.3
S=c1[nH]cnc2nc[nH]c12 [Mercaptopurine] (10000 nM),101,107,101,96.1,101,118,97.8,108,102,89.1,102,121,83.9,95.7,93.6,91.5,185,79.1
C=CCNC1=C2C[C@@H](C)C[C@H](OC)[C@H](O)[C@@H](C)/C=C(\C)[C@H](OC(N)=O)[C@@H](OC)/C=C\C=C(/C)C(=O)NC(=CC1=O)C2=O [Tanespimycin] (10000 nM),62.6,109,84.2,39.8,58.7,75.6,69,52.5,108,102,55.1,61.2,39.1,15.4,99.4,87.4,100,86
OC[C@H]1O[C@@H](n2cnc3c2N=CNC[C@H]3O)C[C@@H]1O [Pentostatin] (1000 nM),98.9,111,103,95.5,103,106,103,101,95.5,104,103,97.8,108,116,102,107,100,96
CN1CC[C@H](c2c(O)cc(O)c3c(=O)cc(-c4ccccc4Cl)oc23)[C@H](O)C1 [Alvocidib] (1000 nM),90.2,83.2,85.3,-101,77.1,24.9,85.3,85.1,50.4,115,58,65.7,18.7,30.7,80.5,97.7,109,56.6
N#CC[C@H](C1CCCC1)n1cc(-c2ncnc3[nH]ccc23)cn1 [Ruxolitinib] (1000 nM),100,127,96.5,104,111,108,95.8,102,95.2,–,86.3,83.8,–,107,96.2,102,119,96.2
Clc1ccc(C(c2ccccc2Cl)C(Cl)Cl)cc1 (stereo unspecified) [Mitotane] (10000 nM),98,93.4,95.6,98.1,98.5,107,97.7,68.9,99.5,–,106,105,100,–,99.5,104,80.3,96.9
CN1CCC(COc2cnc(-c3cccc(Cn4nc(-c5cccc(C#N)c5)ccc4=O)c3)nc2)CC1 (1000 nM),98.4,115,95.6,103,99.9,85,105,128,106,123,95.5,–,88.3,125,112,105,140,94
Nc1nc(Cl)nc2c1ncn2[C@H]1C[C@H](O)[C@@H](CO)O1 [Cladribine] (100 nM),99.7,127,101,95.7,109,104,103,119,98.3,85.4,110,98,–,–,73.8,108,72.2,78.7
Cc1ccc(F)c(NC(=O)Nc2ccc(-c3cccc4[nH]nc(N)c34)cc2)c1 [Linifanib] (1000 nM),101,122,97.9,95.7,99.5,65.7,106,87.2,104,104,–,105,90,110,107,102,86.9,101
CN(C)C/C=C/C(=O)Nc1cc2c(Nc3ccc(F)c(Cl)c3)ncnc2cc1O[C@H]1CCOC1 [Afatinib] (1000 nM),52.4,107,94.1,94.1,106,66.4,106,–,104,–,93.8,–,99.6,117,102,97.1,110,99.8
C=CC[C@@H]1/C=C(\C)C[C@H](C)C[C@H](OC)[C@H]2O[C@@](O)(C(=O)C(=O)N3CCCC[C@H]3C(=O)O[C@H](/C(C)=C/[C@@H]3CC[C@@H](O)[C@H](OC)C3)[C@H](C)[C@@H](O)CC1=O)[C@H](C)C[C@@H]2OC [Tacrolimus] (10000 nM),101,103,97.6,95.8,97.9,92.3,99.8,91.2,100,93.6,88.2,112,70.6,–,92.5,100,52.5,98.3
COc1cccc2cc(-c3nc([C@H]4CC[C@H](C(=O)O)CC4)n4ncnc(N)c34)[nH]c12 [OSI-027] (1000 nM),100,102,97.3,107,104,93.6,97.3,–,101,–,108,106,106,65,91.9,105,119,98.9
Nc1nc(Cl)nc2c1ncn2[C@H]1C[C@H](O)[C@@H](CO)O1 [Cladribine] (1000 nM),102,86.3,101,73.7,107,83.4,100,–,96,92.2,95.9,111,100,86.3,85.4,101,50.6,74.4
C=CC[C@@H]1/C=C(\C)C[C@H](C)C[C@H](OC)[C@H]2O[C@@](O)(C(=O)C(=O)N3CCCC[C@H]3C(=O)O[C@H](/C(C)=C/[C@@H]3CC[C@@H](O)[C@H](OC)C3)[C@H](C)[C@@H](O)CC1=O)[C@H](C)C[C@@H]2OC [Tacrolimus] (1000 nM),99.5,116,99.5,104,110,96.3,100,102,90.2,97.2,–,–,108,108,89.6,106,130,–
Clc1ccc(C(c2ccccc2Cl)C(Cl)Cl)cc1 (stereo unspecified) [Mitotane] (1000 nM),100,115,98.1,104,103,108,98.3,87,93.5,99.9,56.1,–,96.4,95.2,96.3,100,140,93.7
N#CC[C@H](C1CCCC1)n1cc(-c2ncnc3[nH]ccc23)cn1 [Ruxolitinib] (10000 nM),98.6,113,98.7,95.1,76.2,84.8,98.2,98.3,96.7,–,–,118,90,93.4,97.7,98.4,149,94.1
COc1cccc2c1C(=O)c1c(O)c3c(c(O)c1C2=O)C[C@@](O)(C(=O)CO)C[C@@H]3O[C@H]1C[C@H](N)[C@H](O)[C@H](C)O1 [Doxorubicin] (100 nM),105,160,100,81.4,43.3,96.4,96.4,–,100,134,78.6,103,115,111,95.2,109,151,86.3
CS(=O)(=O)c1ccc(C(=O)Nc2ccc(Cl)c(-c3ccccn3)c2)c(Cl)c1 [Vismodegib] (1000 nM),100,99.3,95,104,86.1,94.4,99,–,85.9,106,88.1,100,88.2,90.8,98,99.7,149,99.1
